According to PubChem BioAssay AID330 (DTP/NCI, 2004):
Several values for one entry are separate records, joined by “and”; a condition that tells them apart may be missing. Equal values may be shown once. Inconclusive results and toxic doses are left out.

Test system: P388 leukemia ip, CD2F1 mice, survival T/C
Experiment: NCI In Vivo Anticancer Drug Screen. Data for tumor model P388 Leukemia (intraperitoneal) in CD2F1 (CDF1) mice
Settings: endpoint: median survival time, higher = longer survival
Procedure, shortened: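 Mice carrying the transplanted tumor received test compound or vehicle. Survival was recorded in each group, and the value is the treated-group measurement divided by that of the vehicle-treated control group.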

[1] = dose: 60.0 mg/kg/injection, schedule: Q01DX005 (ip), vehicle: saline
[2] = dose: 120.0 mg/kg/injection, schedule: Q01DX005 (ip), vehicle: saline
[3] = dose: 50.0 mg/kg/injection, schedule: Q01DX009 (ip), vehicle: saline with Tween-80
[4] = dose: 100.0 mg/kg/injection, schedule: Q01DX009 (ip), vehicle: saline with Tween-80
[5] = dose: 50.0 mg/kg/injection, schedule: Q01DX009 (ip), vehicle: Klucel (hydroxypropylcellulose) (HPC)
[6] = dose: 50.0 mg/kg/injection, schedule: Q01DX009 (ip), vehicle: other
[7] = dose: 200.0 mg/kg/injection, schedule: Q01DX009 (ip), vehicle: other

## CC(C)=CCC[C@](C)(O[C@@H]1O[C@H](CO)[C@@H](O)[C@H](O)[C@H]1O)[C@H]1CC[C@]2(C)[C@@H]1[C@H](O)C[C@@H]1[C@@]3(C)CC[C@H](O)C(C)(C)[C@@H]3[C@@H](O[C@@H]3O[C@H](CO)[C@@H](O)[C@H](O)[C@H]3O)C[C@]12C
dose: 50.0 mg/kg/injection, schedule: Q01DX009 (ip), vehicle: saline
  T/C: 105 % of control
dose: 100.0 mg/kg/injection, schedule: Q01DX009 (ip), vehicle: saline
  T/C: 106 % of control
dose: 200.0 mg/kg/injection, schedule: Q01DX009 (ip), vehicle: saline
  T/C: 106 % of control

## CC(C)C1=CC2C3C(=O)NC(=O)C3C1C1C3C(=O)NC(=O)C3C21 (configuration not stated)
[1]
  T/C: 98 % of control
[2]
  T/C: 100 % of control
dose: 240.0 mg/kg/injection, schedule: Q01DX005 (ip), vehicle: saline
  T/C: 100 % of control

## CC(=O)Nc1nc(N)nc(N)n1
[3]
  T/C: 106 % of control
[4]
  T/C: 103 % of control
dose: 200.0 mg/kg/injection, schedule: Q01DX009 (ip), vehicle: saline with Tween-80
  T/C: 88 % of control

## C=CC[S+]1CCCCC1C=C (configuration not stated)
dose: 100.0 mg/kg/injection, schedule: Q01DX001 (ip), vehicle: saline with Tween-80
  T/C: 94 % of control
dose: 200.0 mg/kg/injection, schedule: Q01DX001 (ip), vehicle: saline with Tween-80
  T/C: 95 % of control
dose: 400.0 mg/kg/injection, schedule: Q01DX001 (ip), vehicle: saline with Tween-80
  T/C: 95 % of control

## C[n+]1ccc(I)c2ccc(Cl)cc21
dose: 12.5 mg/kg/injection, schedule: Q01DX009 (ip), vehicle: Klucel (hydroxypropylcellulose) (HPC)
  T/C: 101 % of control
dose: 25.0 mg/kg/injection, schedule: Q01DX009 (ip), vehicle: Klucel (hydroxypropylcellulose) (HPC)
  T/C: 104 % of control
[5]
  T/C: 109 % of control

## O=C1CC(C(Cl)(Cl)Cl)O1 (configuration not stated)
dose: 25.0 mg/kg/injection, schedule: Q04DX003 (ip), vehicle: saline
  T/C: 97 % of control
dose: 50.0 mg/kg/injection, schedule: Q04DX003 (ip), vehicle: saline
  T/C: 97 % of control
dose: 100.0 mg/kg/injection, schedule: Q04DX003 (ip), vehicle: saline
  T/C: 99 % of control
dose: 200.0 mg/kg/injection, schedule: Q04DX003 (ip), vehicle: saline
  T/C: 99 % of control

## O=C1C=CC2(C=C1)CCN=C(c1cc3c(cc1Br)OCO3)O2
dose: 25.0 mg/kg/injection, schedule: Q04DX002 (ip), vehicle: saline
  T/C: 102 % of control
dose: 50.0 mg/kg/injection, schedule: Q04DX002 (ip), vehicle: saline
  T/C: 103 % of control
dose: 100.0 mg/kg/injection, schedule: Q04DX002 (ip), vehicle: saline with Tween-80
  T/C: 108 % of control
dose: 100.0 mg/kg/injection, schedule: Q04DX002 (ip), vehicle: saline
  T/C: 100 % of control

## Cc1ccc(N=C(N)N/N=C/c2ccc3c(c2)Cc2ccccc2-3)cc1
dose: 25.0 mg/kg/injection, schedule: Q04DX002 (ip), vehicle: saline with Tween-80
  T/C: 106 % of control
dose: 50.0 mg/kg/injection, schedule: Q04DX002 (ip), vehicle: saline with Tween-80
  T/C: 107 % of control

## CCOC(=O)OCC1OC(OC(C)=O)C(OC(C)=O)C(OC(=O)OCC)C1OC(=O)OCC (configuration not stated)
dose: 12.5 mg/kg/injection, schedule: Q01DX009 (ip), vehicle: water
  T/C: 95 % of control
dose: 25.0 mg/kg/injection, schedule: Q01DX009 (ip), vehicle: water
  T/C: 99 % of control
dose: 50.0 mg/kg/injection, schedule: Q01DX009 (ip), vehicle: water
  T/C: 91 % of control
dose: 100.0 mg/kg/injection, schedule: Q01DX009 (ip), vehicle: water
  T/C: 99 % of control
dose: 200.0 mg/kg/injection, schedule: Q01DX009 (ip), vehicle: water
  T/C: 90 % of control

## COc1nc(C(Cl)(Cl)Cl)c(Cl)c(OC)c1Cl
dose: 17.8 mg/kg/injection, schedule: Q01DX005 (iv), vehicle: other
  T/C: 108 % of control
dose: 25.0 mg/kg/injection, schedule: Q01DX005 (ip), vehicle: Klucel (hydroxypropylcellulose) (HPC)
  T/C: 114 % of control and 115 % of control
dose: 26.7 mg/kg/injection, schedule: Q01DX005 (ip), vehicle: other
  T/C: 111 % of control and 121 % of control
dose: 26.7 mg/kg/injection, schedule: Q01DX005 (iv), vehicle: other
  T/C: 109 % of control
dose: 40.0 mg/kg/injection, schedule: Q01DX005 (ip), vehicle: Klucel (hydroxypropylcellulose) (HPC)
  T/C: 100 % of control and 102 % of control
dose: 60.0 mg/kg/injection, schedule: Q01DX005 (ip), vehicle: Klucel (hydroxypropylcellulose) (HPC)
  T/C: 105 % of control and 107 % of control
dose: 60.0 mg/kg/injection, schedule: Q01DX005 (iv), vehicle: other
  T/C: 107 % of control
dose: 90.0 mg/kg/injection, schedule: Q01DX005 (ip), vehicle: other
  T/C: 171 % of control
dose: 134.0 mg/kg/injection, schedule: Q01DX005 (ip), vehicle: Klucel (hydroxypropylcellulose) (HPC)
  T/C: 150 % of control
dose: 135.0 mg/kg/injection, schedule: Q01DX005 (ip), vehicle: Klucel (hydroxypropylcellulose) (HPC)
  T/C: 106 % of control
dose: 135.0 mg/kg/injection, schedule: Q01DX005 (ip), vehicle: other
  T/C: 196 % of control and 207 % of control
dose: 202.3 mg/kg/injection, schedule: Q01DX005 (ip), vehicle: Klucel (hydroxypropylcellulose) (HPC)
  T/C: 105 % of control
dose: 303.3 mg/kg/injection, schedule: Q01DX005 (ip), vehicle: Klucel (hydroxypropylcellulose) (HPC)
  T/C: 168 % of control

## CO/C=C(\C(=O)OC)c1ccccc1
[5]
  T/C: 100 % of control
dose: 100.0 mg/kg/injection, schedule: Q01DX009 (ip), vehicle: Klucel (hydroxypropylcellulose) (HPC)
  T/C: 106 % of control
dose: 200.0 mg/kg/injection, schedule: Q01DX009 (ip), vehicle: Klucel (hydroxypropylcellulose) (HPC)
  T/C: 106 % of control

## O=C(O)c1cc2c(Cl)cccc2[nH]1
dose: 25.0 mg/kg/injection, schedule: Q01DX009 (ip), vehicle: saline with Tween-80
  T/C: 90 % of control
[3]
  T/C: 90 % of control
[4]
  T/C: 90 % of control

## CCOC(=O)c1ccc2ccc(OC)c(OC)c2c1
dose: 12.5 mg/kg/injection, schedule: Q01DX009 (ip), vehicle: other
  T/C: 95 % of control
dose: 25.0 mg/kg/injection, schedule: Q01DX009 (ip), vehicle: other
  T/C: 97 % of control
[6]
  T/C: 104 % of control
dose: 100.0 mg/kg/injection, schedule: Q01DX009 (ip), vehicle: other
  T/C: 95 % of control
[7]
  T/C: 104 % of control

## O=C(O)/C=N/NS(=O)(=O)c1ccc2ccccc2c1
[6]
  T/C: 161 % of control and 164 % of control
[7]
  T/C: 153 % of control

## CCCCCC1(CCCCCCCC(O)CC(=O)OCC)OCCO1 (configuration not stated)
dose: 100.0 mg/kg/injection, schedule: Q01DX001 (ip), vehicle: Klucel (hydroxypropylcellulose) (HPC)
  T/C: 100 % of control
dose: 200.0 mg/kg/injection, schedule: Q01DX001 (ip), vehicle: Klucel (hydroxypropylcellulose) (HPC)
  T/C: 108 % of control
dose: 400.0 mg/kg/injection, schedule: Q01DX001 (ip), vehicle: Klucel (hydroxypropylcellulose) (HPC)
  T/C: 100 % of control

## Nc1ccc(Cn2ccc3c4c(N)nc(N)nc4ccc32)cc1
dose: 1.25 mg/kg/injection, schedule: Q01DX009 (ip), vehicle: saline with Tween-80
  T/C: 106 % of control and 117 % of control
dose: 2.5 mg/kg/injection, schedule: Q01DX009 (ip), vehicle: saline with Tween-80
  T/C: 110 % of control and 111 % of control and 112 % of control
dose: 5.0 mg/kg/injection, schedule: Q01DX009 (ip), vehicle: saline with Tween-80
  T/C: 121 % of control
dose: 10.0 mg/kg/injection, schedule: Q01DX009 (ip), vehicle: saline with Tween-80
  T/C: 151 % of control and 186 % of control
dose: 20.0 mg/kg/injection, schedule: Q01DX009 (ip), vehicle: saline with Tween-80
  T/C: 182 % of control
dose: 40.0 mg/kg/injection, schedule: Q01DX009 (ip), vehicle: saline with Tween-80
  T/C: 105 % of control

## CCOC(=O)C1=C(C(C)=O)C(c2ccc(OC)c(OC)c2)C(C(C)=O)=C(C(=O)OCC)N1
[1]
  T/C: 102 % of control
[2]
  T/C: 100 % of control

## CSc1nc(N)nc2nc[nH]c12
dose: 100.0 mg/kg/injection, schedule: Q04DX003 (ip), vehicle: saline with Tween-80
  T/C: 104 % of control
dose: 200.0 mg/kg/injection, schedule: Q04DX003 (ip), vehicle: saline with Tween-80
  T/C: 122 % of control

## COc1ccc(-c2cn(-c3ccc(OC)cc3)c3ncnc(N)c23)cc1
dose: 60.0 mg/kg/injection, schedule: Q01DX005 (ip), vehicle: saline with Tween-80
  T/C: 102 % of control
dose: 120.0 mg/kg/injection, schedule: Q01DX005 (ip), vehicle: saline with Tween-80
  T/C: 100 % of control
dose: 240.0 mg/kg/injection, schedule: Q01DX005 (ip), vehicle: saline with Tween-80
  T/C: 96 % of control
